Two compounds from ChEMBL document CHEMBL1138833, “Enantioselective synthesis and biological activity of (3S,4R)- and (3S,4S)-3-hydroxy-4-hydroxymethyl- 4-butanolides in relation to PGE2” (J Med Chem, 2004) can be followed below.

Test [1] has as its target Prostaglandin E2 receptor EP2 subtype (Homo sapiens) (UniProt P43116). The experiment in a line: The percentage decrease in the binding of [3H]PGE2, in the presence of 1000 uM of compound.
The target is the same in test [2]. Description: The percentage decrease in the binding of [3H]PGE2, in the presence of 125 uM of compound.

Chain of Prostaglandin E2 receptor EP2 subtype (Homo sapiens) (P43116 whole entry): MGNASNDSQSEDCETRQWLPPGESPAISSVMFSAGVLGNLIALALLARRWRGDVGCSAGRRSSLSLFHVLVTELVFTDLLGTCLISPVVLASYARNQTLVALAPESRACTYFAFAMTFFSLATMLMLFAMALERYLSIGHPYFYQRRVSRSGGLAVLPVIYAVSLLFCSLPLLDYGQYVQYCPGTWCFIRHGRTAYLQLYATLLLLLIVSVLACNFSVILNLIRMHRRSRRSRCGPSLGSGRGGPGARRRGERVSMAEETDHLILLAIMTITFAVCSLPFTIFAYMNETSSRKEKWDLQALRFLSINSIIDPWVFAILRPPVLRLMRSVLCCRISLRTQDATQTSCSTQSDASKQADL

`O=C1C[C@H](O)[C@H](CO)O1`: the Decrease in test [1] came to 73%.
As for `O=C1C[C@H](O)[C@@H](CO)O1`, the Decrease in test [2] was 78%; in test [1] it was 33%.
